{"source": "ChEMBL document CHEMBL1201862", "about": "“PubChem BioAssay data set” (2004)", "key": {"[1]": {"test": "cytotoxicity in HEK-293T cells, dose response, cytotoxicity control for TCR NF-kB inhibitor project, luminescence, T-cell screen hits (AID 489026);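 also: cells exposed to compound about 14 hours before the viability readout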", "assay_type": "functional, cell-based"}, "[2]": {"test": "CEM21 lymphoblast cell cytotoxicity, dose response, cytotoxicity control for viral fusion inhibitor project, CellTiter-Glo luminescence, cherry-picked (AID 652042);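 also: potency for signal decrease meaning cytotoxicity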", "assay_type": "functional, cell-based"}, "Paired box protein Pax-8": {"target": "Paired box protein Pax-8 (Homo sapiens, UniProt Q06710)", "sequence (Q06710 whole entry)": "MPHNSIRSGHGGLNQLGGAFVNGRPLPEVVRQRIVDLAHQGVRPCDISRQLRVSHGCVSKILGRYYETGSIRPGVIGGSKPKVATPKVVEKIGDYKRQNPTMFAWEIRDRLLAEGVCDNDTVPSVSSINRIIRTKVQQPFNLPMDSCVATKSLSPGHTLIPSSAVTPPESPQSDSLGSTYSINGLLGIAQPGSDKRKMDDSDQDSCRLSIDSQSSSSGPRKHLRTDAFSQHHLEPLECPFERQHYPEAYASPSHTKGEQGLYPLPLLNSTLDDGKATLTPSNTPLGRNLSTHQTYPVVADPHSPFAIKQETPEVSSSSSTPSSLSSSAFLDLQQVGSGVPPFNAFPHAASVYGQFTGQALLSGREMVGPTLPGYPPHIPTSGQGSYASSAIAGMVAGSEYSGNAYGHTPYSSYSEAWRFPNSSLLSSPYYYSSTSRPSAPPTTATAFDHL", "test": "inhibitors of PAX8-driven TPO luciferase reporter, dose response, RMG-I cells, cherry-pick (AID 687027);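 also: luciferase reporter driven by Pax8 target thyroperoxidase promoter measured by SteadyGlo luminescence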", "assay_type": "functional, cell-based"}, "[3]": {"test": "inhibitors of clade B AD8 Env fusion, dose response, cell-based, cherry-pick (AID 652062);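 also: potency is for inhibitors of fusion seen as a drop in luminescence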", "assay_type": "functional"}, "[4]": {"test": "inhibitors of HIV Env-driven cell fusion, dose response, cherry-pick (AID 652057)", "assay_type": "functional, cell-based"}, "[5]": {"test": "ZM109 Env clade C HIV-1 fusion inhibitors, dose response, HeLa effector, CEM target cells, luciferase, cherry-pick (AID 652058)", "assay_type": "functional, cell-based"}, "[6]": {"test": "off-target signal loss in HeLa-CEM21 co-culture – HeLa F-luc CTL cells, cherry-picked, counter-screen for HIV-1 Env fusion inhibitor project, dose response (AID 652040);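 also: potency for signal decrease marking cytotoxic or nonspecific inhibition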", "assay_type": "functional, cell-based"}, "[7]": {"system": "Streptococcus sp. 'group A'", "test": "growth inhibition of control SK(-) GAS strain, dose response, counter-screen for streptokinase expression inhibitor project, luminescence, kanamycin, BacTiterGlo, confirmation (AID 1900)", "assay_type": "functional, organism-based"}, "Beta-galactosidase": {"target": "Beta-galactosidase (Escherichia coli, UniProt Q8VNN2)", "sequence (Q8VNN2 whole entry)": "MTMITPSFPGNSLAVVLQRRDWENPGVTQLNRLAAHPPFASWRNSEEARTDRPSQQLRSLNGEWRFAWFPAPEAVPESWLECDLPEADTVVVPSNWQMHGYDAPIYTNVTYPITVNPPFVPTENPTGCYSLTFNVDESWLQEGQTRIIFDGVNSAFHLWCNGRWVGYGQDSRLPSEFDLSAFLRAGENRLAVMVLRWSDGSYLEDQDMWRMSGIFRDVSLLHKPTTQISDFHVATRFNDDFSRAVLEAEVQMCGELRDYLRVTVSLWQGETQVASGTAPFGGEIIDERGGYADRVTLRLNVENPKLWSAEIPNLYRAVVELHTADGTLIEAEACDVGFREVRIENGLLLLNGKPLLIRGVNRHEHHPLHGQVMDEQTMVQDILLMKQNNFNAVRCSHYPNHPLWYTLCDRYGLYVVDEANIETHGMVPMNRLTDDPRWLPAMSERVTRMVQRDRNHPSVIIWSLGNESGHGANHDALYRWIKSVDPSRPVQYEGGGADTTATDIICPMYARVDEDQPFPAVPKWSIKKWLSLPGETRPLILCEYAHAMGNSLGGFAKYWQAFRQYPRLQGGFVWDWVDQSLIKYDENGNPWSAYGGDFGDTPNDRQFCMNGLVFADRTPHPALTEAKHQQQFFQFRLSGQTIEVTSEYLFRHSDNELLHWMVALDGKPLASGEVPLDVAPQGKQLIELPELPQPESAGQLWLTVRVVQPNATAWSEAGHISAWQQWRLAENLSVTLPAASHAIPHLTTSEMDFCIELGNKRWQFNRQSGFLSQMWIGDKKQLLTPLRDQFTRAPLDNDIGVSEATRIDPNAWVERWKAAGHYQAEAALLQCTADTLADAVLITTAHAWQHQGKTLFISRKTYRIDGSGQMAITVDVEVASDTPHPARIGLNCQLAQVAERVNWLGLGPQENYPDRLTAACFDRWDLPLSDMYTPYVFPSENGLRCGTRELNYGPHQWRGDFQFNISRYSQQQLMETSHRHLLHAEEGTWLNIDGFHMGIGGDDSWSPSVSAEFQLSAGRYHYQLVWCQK", "test": "PubChem AID 485352", "assay_type": "functional"}, "Streptokinase A": {"target": "T1, Streptokinase A (Streptococcus pyogenes serotype M1, UniProt P10520)", "T1 sequence (P10520 whole entry)": "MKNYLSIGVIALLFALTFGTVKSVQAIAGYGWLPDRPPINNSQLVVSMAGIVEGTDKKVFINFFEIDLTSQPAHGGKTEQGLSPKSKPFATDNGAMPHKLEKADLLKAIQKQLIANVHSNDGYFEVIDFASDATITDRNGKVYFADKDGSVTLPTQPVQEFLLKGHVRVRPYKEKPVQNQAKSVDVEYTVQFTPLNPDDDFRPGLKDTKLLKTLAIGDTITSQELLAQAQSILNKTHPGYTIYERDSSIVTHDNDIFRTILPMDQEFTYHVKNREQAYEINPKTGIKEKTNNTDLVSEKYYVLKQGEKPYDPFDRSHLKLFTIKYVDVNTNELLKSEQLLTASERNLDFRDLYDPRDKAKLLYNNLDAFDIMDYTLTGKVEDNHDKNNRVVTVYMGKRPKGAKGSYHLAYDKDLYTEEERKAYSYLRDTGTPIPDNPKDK", "test": "S. pyogenes streptokinase expression inhibitors, potency, dose response, plasminogen activation absorbance, OD405 (AID 1914);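 also: secreted streptokinase activity via plasminogen activation per viability signal from cell pellet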", "assay_type": "functional, Streptococcus pyogenes M1 GAS"}, "[8]": {"target": "T2, Type-1 angiotensin II receptor (Homo sapiens, UniProt P30556)", "T2 sequence (P30556 whole entry)": "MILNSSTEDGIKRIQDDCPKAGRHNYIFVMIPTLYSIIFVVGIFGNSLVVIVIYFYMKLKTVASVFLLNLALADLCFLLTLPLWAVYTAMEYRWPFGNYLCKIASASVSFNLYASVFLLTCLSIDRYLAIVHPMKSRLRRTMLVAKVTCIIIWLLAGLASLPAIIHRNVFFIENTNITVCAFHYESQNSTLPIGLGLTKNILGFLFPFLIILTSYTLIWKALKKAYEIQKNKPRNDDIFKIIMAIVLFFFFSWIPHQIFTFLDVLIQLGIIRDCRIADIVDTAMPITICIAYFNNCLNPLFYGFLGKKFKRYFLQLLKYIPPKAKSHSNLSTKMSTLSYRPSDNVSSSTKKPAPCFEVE", "test": "AT1 receptor antagonists, dose response, selectivity assay for APJ receptor antagonist project, cell-based, uHTS hits (AID 463214);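 also: antagonist potency against angiotensin II stimulated AT1 response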", "assay_type": "functional"}, "Streptococcus": {"system": "Streptococcus", "test": "Group A Streptococcus viability loss, dose response, counter-screen for streptokinase expression inhibitor project, luminescence, BacTiterGlo (AID 1915);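 also: potency for reduction of bacterial viability or growth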", "assay_type": "functional, organism-based"}, "Nonstructural protein 1": {"target": "Nonstructural protein 1 (Influenza A virus, UniProt Q194T2)", "sequence (Q194T2 whole entry)": "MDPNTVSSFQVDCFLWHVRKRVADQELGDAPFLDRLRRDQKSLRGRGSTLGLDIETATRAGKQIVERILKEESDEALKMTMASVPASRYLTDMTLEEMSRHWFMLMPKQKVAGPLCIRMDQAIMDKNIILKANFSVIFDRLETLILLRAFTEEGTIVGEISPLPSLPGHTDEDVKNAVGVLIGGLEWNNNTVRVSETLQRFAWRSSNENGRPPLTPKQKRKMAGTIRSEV", "assay_type": "functional, Influenza A virus (A/California/07/2009(H1N1))"}, "[9]": {"target": "T3, Endoribonuclease toxin MazF (Escherichia coli K-12, UniProt P0AE70)", "T3 sequence (P0AE70 whole entry)": "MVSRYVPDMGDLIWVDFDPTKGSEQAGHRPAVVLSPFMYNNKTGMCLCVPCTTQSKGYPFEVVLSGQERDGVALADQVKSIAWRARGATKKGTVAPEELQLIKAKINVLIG", "test": "MazF toxin RNase activators, dose response, biochemical, fluorescence, single-stranded RNA substrate, uHTS hits (AID 588481)", "assay_type": "functional"}, "[10]": {"target": "T3, Endoribonuclease toxin MazF", "test": "fluorescent RNA oligo signal without MazF, dose response, counter-screen for MazEF activator project, biochemical, fluorescence, single-stranded RNase substrate (AID 588502)", "assay_type": "functional"}, "[11]": {"target": "T4, Corticotropin-releasing factor receptor 2/Corticotropin-releasing factor-binding protein (Homo sapiens, UniProt P24387+Q13324)", "T4 sequence (Q13324 whole entry)": "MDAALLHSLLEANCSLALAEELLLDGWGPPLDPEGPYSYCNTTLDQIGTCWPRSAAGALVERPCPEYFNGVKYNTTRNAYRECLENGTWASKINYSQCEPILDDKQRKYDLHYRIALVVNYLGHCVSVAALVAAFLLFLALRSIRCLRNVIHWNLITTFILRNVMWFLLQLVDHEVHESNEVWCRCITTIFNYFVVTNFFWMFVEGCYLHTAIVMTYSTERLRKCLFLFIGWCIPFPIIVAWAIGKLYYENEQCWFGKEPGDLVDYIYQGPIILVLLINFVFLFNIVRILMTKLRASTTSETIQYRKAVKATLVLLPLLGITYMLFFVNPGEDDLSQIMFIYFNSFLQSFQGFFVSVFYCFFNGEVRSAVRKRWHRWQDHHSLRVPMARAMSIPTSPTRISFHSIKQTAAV", "T4 sequence (P24387 whole entry)": "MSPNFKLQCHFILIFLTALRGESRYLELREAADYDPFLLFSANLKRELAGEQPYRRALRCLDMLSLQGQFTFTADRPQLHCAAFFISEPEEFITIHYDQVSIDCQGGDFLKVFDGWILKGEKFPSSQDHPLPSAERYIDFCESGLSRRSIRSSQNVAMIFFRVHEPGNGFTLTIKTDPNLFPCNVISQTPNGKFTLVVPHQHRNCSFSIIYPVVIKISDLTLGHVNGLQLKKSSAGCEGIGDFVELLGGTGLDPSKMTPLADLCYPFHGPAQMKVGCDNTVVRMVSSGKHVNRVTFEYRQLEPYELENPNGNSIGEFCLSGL", "test": "Dose Response confirmation of uHTS hits for small molecule antagonists of the CRF-binding protein and CRF-R2 receptor complex.", "assay_type": "functional", "details": "read-out: IC50_Mean"}, "[12]": {"target": "T4, Corticotropin-releasing factor receptor 2/Corticotropin-releasing factor-binding protein", "test": "activators of CRF receptor 2 with binding protein – uHTS hits, confirmation (AID 602473)", "assay_type": "functional", "details": "read-out: EC50_Mean"}, "cells [13]": {"test": "cells", "assay_type": "functional, cell-based"}, "cells [14]": {"test": "cells", "assay_type": "functional, cell-based", "remark": "listed apart in the source"}, "[15]": {"target": "Ras and Rab interactor 1/Tyrosine-protein kinase ABL1 (Homo sapiens, UniProt P00519+Q13671)", "sequence (P00519 whole entry)": "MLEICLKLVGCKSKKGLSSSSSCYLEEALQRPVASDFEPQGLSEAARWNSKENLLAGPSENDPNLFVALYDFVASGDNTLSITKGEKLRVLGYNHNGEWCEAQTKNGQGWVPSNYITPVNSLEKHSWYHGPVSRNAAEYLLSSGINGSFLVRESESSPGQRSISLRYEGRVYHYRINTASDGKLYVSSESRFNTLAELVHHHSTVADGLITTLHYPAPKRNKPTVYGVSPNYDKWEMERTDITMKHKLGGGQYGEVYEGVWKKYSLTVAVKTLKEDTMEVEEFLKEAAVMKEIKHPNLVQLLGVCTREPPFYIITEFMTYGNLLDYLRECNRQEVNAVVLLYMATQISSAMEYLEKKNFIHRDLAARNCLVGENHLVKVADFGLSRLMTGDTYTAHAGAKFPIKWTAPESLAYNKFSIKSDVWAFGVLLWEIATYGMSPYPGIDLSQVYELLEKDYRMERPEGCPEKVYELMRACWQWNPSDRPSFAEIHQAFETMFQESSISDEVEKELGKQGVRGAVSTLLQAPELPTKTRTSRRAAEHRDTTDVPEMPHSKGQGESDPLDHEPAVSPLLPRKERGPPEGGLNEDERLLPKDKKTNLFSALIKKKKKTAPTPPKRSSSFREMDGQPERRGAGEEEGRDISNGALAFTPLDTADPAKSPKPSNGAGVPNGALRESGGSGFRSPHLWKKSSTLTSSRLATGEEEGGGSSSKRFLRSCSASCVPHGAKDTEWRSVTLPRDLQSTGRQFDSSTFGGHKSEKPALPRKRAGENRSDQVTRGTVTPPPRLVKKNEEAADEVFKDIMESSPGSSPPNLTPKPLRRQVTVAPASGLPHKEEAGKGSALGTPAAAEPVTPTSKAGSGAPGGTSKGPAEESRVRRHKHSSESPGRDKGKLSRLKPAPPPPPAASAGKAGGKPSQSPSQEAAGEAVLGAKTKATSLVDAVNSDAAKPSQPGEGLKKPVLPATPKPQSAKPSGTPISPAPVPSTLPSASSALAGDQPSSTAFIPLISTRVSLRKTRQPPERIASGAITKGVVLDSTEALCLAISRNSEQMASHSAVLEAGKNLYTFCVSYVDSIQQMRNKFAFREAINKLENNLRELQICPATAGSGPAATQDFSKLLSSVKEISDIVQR", "sequence (Q13671 whole entry)": "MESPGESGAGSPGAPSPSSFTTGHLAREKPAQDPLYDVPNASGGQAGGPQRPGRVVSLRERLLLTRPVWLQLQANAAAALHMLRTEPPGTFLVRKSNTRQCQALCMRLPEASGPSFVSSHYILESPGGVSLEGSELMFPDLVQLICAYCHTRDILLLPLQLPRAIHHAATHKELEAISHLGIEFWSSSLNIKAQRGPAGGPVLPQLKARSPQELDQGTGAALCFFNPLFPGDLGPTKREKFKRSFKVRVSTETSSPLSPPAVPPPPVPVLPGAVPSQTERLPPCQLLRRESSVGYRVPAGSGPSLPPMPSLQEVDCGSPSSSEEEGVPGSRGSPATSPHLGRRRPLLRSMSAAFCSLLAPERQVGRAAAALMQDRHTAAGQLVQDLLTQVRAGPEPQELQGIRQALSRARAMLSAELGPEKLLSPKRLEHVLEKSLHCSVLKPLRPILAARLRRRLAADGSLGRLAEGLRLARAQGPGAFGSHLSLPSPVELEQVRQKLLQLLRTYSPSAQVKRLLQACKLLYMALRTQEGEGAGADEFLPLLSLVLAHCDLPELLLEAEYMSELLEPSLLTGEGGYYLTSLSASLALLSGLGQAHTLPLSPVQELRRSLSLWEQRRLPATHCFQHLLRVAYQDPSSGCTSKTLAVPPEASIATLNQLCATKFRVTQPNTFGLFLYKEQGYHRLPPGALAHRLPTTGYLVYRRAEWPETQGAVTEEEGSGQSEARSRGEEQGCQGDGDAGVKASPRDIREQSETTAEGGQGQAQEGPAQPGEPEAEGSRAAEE", "assay_type": "functional"}}, "note": "The source made the active and inactive calls.", "data": [{"smiles": "COc1cc(-c2c(-c3cc(OC)c(OC)c(OC)c3)noc2C)ccc1F", "values": [{"measurement": "IC50", "setting": "[1]", "result": "75.9 µM (inactive)"}, {"measurement": "AC50", "setting": "[2]", "result": "21.3 µM (active)"}, {"measurement": "AC50", "setting": "Paired box protein Pax-8", "result": "2.78 µM (active)"}, {"measurement": "AC50", "setting": "[3]", "result": "29.7 µM (active)"}]}, {"smiles": "CC(C)(C)n1nnnc1C(c1cccnc1)N(Cc1ccccc1)Cc1cccs1", "note": "(centres undefined)", "values": [{"measurement": "AC50", "setting": "[4]", "result": "5.51 µM (active)"}, {"measurement": "AC50", "setting": "[2]", "result": "52.5 µM (active)"}, {"measurement": "AC50", "setting": "[5]", "result": "7 µM (active)"}, {"measurement": "AC50", "setting": "[6]", "result": "8.29 µM (active)"}, {"measurement": "AC50", "setting": "[3]", "result": "17.5 µM (active)"}]}, {"smiles": "CCSc1nnc(NC(=O)c2ccccn2)s1", "values": [{"measurement": "EC50", "setting": "[7]", "result": "6.34 µM (active)"}, {"measurement": "EC50", "setting": "Beta-galactosidase", "result": "> 40 µM (inactive)"}, {"measurement": "EC50", "setting": "Streptokinase A", "result": "> 150 µM (not active)"}, {"measurement": "IC50", "setting": "[8]", "result": "16.8 µM (active)"}, {"measurement": "EC50", "setting": "Streptococcus", "result": "15.3 µM (active)"}, {"measurement": "IC50", "setting": "Nonstructural protein 1", "result": "10.6 µM (active)"}]}, {"smiles": "Cc1ccccc1Cn1cccc1/C=C1/C(=N)N2C=CSC2=NC1=O", "values": [{"measurement": "EC50", "setting": "[9]", "result": "> 99 µM (inactive)"}, {"measurement": "EC50", "setting": "[10]", "result": "> 99 µM (inactive)"}, {"measurement": "IC50", "setting": "[11]", "result": "> 47.1 µM (inactive)"}, {"measurement": "EC50", "setting": "[12]", "result": "> 53 µM (inactive)"}]}, {"smiles": "CC1(C)CC2(CC(c3ccccc3F)c3cc(Cl)c(O)cc3O2)NC(=S)N1", "note": "(centres undefined)", "values": [{"measurement": "EC50", "setting": "Beta-galactosidase", "result": "> 40 µM (inactive)"}, {"measurement": "IC50", "setting": "[8]", "result": "> 40 µM (not active)"}]}, {"smiles": "CCCOc1ccc(/C=N/NC(=O)CSc2ccccn2)cc1OC", "values": [{"measurement": "EC50", "setting": "cells [13]", "result": "> 350 µM (not active)"}, {"measurement": "EC50", "setting": "cells [14]", "result": "> 350 µM (not active)"}, {"measurement": "IC50", "setting": "[15]", "result": "12 µM (inactive)"}]}]}
